The source of these data is patent US20120172390A1, “METHOD OF TREATING SLEEP DISORDERS USING THE COMBINATION OF EPLIVANSERIN AND ZOLPIDEM” (priority 2009, published 2012).

Series [1] in a line: Adverse events and tolerability in healthy individuals. On the procedure:
Single center study employing a two-part, double-blind, randomized, placebo- and active-controlled, 4-way crossover design (FIG. 1). Eligibility criteria included certification of good health, 18-50 years of age, and written informed consent.
Part A (the first part of the study): participants were first administered either one evening dose of flurazepam 30 mg or matching placebo, and after a 21-day washout period, participants were administered the other treatment.
Part B: participants received either an evening dose of eplivanserin 5 mg or matching placebo for 21 days, followed by co-administration with a single dose of zolpidem-IR 10 mg.
After this phase of the study, participants were then administered the reverse treatment sequence.
Adverse events were recorded (Medical Dictionary for Regulatory Activities v9.1). Other measures included vital signs, standard clinical laboratory parameters (biochemistry, hematology, and urinalysis), and electrocardiograms.

The nature of series [2]: Critical Flicker Fusion (CFF) test, next-day morning. Format: in vivo, human.
On the set-up of series [3]: species or system human. Particulars: in vivo.
A short description of series [4]: Immediate recall of Word list, next-day morning. Format: in vivo, human.
Series [5] in a line: Delayed Recall of Word Lists, next-day morning. The class given is in vivo, human.
Series [6] can be described thus: Compensatory Tracking Task (CTT), next-day morning. Format: in vivo, human.
Series [7] can be described thus: Bond-Lader Visual Analog Scale (VAS), next-day morning. The class given is in vivo, human.
Series [8] can be described thus: Global analysis of the 7 primary psychomotor/cognitive endpoints (multivariate mixed effect model). The class given is in vivo, human.
Series [9] can be described thus: Steady-state levels after repeated administration in the study. The class given is in vivo, human. Conditions: after 20 days of repeated administration of eplivanserin 5 mg; also for its active metabolite. Here is the method: As a consequence, cognitive/psychomotor performance was assessed under steady state conditions.
The conditions of series [10]: in vivo; cited from earlier work.
A further series relates to GABA receptors. Conditions: unlike benzodiazepines; cited from earlier work.
Setting [11] is: flurazepam 30 mg single evening dose vs placebo, P=0.0001.
The mark [12] stands for this setting: eplivanserin 5 mg evening dose for 21 days vs placebo, P>0.1.

On to `Cc1ccc(-c2nc3ccc(C)cn3c2CC(=O)N(C)C)cc1` [zolpidem], for which the Adverse events reported in series [1] (Part B, co-administration phase with single dose zolpidem-IR 10 mg) was 1/24.
In the case of `CCN(CC)CCN1C(=O)CN=C(c2ccccc2F)c2cc(Cl)ccc21` [flurazepam, reference compound], in series [2] (flurazepam 30 mg single evening dose vs placebo, P=0.2005), the “CFF point of subjective equality, mean difference estimate” value is given as −0.52 Hz. Besides, the “CRT total reaction time, mean difference estimate” value in [3] is 47.46 ms. Moreover, the “Immediate word recall number of correct responses, mean difference estimate” value in series [4] (setting [11]) is −3.08. Also, the “Delayed word recall number of correct responses, mean difference estimate” value in [5] (setting [11]) is −4.38. Besides, in [6] (flurazepam 30 mg single evening dose vs placebo, P=0.0029), the “Compensatory tracking task overall average response time, mean difference estimate” value is given as 49.98 ms. The “Compensatory tracking task overall average tracking errors, mean difference estimate” value in series [6] (flurazepam 30 mg single evening dose vs placebo, P=0.0221) is listed as 1.64 pixels. Further, the “Bond and Lader visual analogue scale alertness, mean difference estimate” value in series [7] (flurazepam 30 mg single evening dose vs placebo, P=0.0031) was 62.38. In addition, in series [8] (flurazepam 30 mg single dose compared with placebo, P=0.0001), the “Overall treatment effect on the 7 primary endpoints (global analysis)” value was “associated with an overall treatment effect”. Moreover, the Adverse events reported in [1] (Part A, flurazepam 30 mg single dose, healthy individuals) is listed as 2/24.
Turning to `CN(C)CCO/N=C(/C=C/c1ccc(O)cc1)c1ccccc1F` [eplivanserin, (1Z, 2 E)-1-(2-fluorophenyl)-3-(4-hydroxyphenyl)-prop-2-en-1-one-O-(2-dimethylaminoethyl)oxime], the “CFF point of subjective equality, mean difference estimate” value in [2] (eplivanserin 5 mg evening dose for 21 days vs placebo, P=0.0002) was −1.01 Hz. Moreover, in series [3], the “CRT total reaction time, mean difference estimate” value is -10.40 ms. In addition, in series [4] (setting [12]), the “Immediate word recall number of correct responses, mean difference estimate” value is listed as −1.04. In addition, in series [5] (setting [12]), the “Delayed word recall number of correct responses, mean difference estimate” value is recorded as −0.33. Besides, in series [6] (setting [12]), the “Compensatory tracking task overall average response time, mean difference estimate” value is listed as 13.03 ms and the “Compensatory tracking task overall average tracking errors, mean difference estimate” value is −0.22 pixels. For the same compound, the “Bond and Lader visual analogue scale alertness, mean difference estimate” value in series [7] (setting [12]) was 9.38. Also, in [8] (eplivanserin 5 mg 21 days alone compared with placebo, P=0.0603), the “Overall treatment effect on the 7 primary endpoints (global analysis)” value is given as “not associated with an overall treatment effect”. Besides, the “Headache, participants reporting” value in series [1] (Part B, eplivanserin 5 mg 21 days, 6/24, placebo also 25%) is given as 25%. For the same compound, the “Dizziness, somnolence and asthenia, participants reporting” value in series [1] (Part B, eplivanserin 5 mg 21 days, 7/24, placebo 4.2% (1/24)) came to 29.2%. Moreover, the Tolerability result in [1] (eplivanserin 5 mg, alone and in combination with zolpidem) is reported as “well tolerated”. The Steady-state levels entry in series [9] is given as “Steady-state levels were reached”. The Absorption in series [10] was above 70%. Further, the “Binding to GABA receptors” value in the series with GABA receptors is given as “does not bind”.
